Laboratory results taken from patent US10000512B2, “Compounds for the treatment of infectious diseases” (Hoffmann-La Roche Inc., priority 2014, dated 2018).

What was measured:
human TLR7 = target: T1, human TLR7 (Homo sapiens, UniProt Q9NYK1); experiment: HEK293-Blue-hTLR-7 cells assay (SEAP reporter); format: cell-based; conditions: 20 hours incubation
T1 sequence (Q9NYK1 27-1049): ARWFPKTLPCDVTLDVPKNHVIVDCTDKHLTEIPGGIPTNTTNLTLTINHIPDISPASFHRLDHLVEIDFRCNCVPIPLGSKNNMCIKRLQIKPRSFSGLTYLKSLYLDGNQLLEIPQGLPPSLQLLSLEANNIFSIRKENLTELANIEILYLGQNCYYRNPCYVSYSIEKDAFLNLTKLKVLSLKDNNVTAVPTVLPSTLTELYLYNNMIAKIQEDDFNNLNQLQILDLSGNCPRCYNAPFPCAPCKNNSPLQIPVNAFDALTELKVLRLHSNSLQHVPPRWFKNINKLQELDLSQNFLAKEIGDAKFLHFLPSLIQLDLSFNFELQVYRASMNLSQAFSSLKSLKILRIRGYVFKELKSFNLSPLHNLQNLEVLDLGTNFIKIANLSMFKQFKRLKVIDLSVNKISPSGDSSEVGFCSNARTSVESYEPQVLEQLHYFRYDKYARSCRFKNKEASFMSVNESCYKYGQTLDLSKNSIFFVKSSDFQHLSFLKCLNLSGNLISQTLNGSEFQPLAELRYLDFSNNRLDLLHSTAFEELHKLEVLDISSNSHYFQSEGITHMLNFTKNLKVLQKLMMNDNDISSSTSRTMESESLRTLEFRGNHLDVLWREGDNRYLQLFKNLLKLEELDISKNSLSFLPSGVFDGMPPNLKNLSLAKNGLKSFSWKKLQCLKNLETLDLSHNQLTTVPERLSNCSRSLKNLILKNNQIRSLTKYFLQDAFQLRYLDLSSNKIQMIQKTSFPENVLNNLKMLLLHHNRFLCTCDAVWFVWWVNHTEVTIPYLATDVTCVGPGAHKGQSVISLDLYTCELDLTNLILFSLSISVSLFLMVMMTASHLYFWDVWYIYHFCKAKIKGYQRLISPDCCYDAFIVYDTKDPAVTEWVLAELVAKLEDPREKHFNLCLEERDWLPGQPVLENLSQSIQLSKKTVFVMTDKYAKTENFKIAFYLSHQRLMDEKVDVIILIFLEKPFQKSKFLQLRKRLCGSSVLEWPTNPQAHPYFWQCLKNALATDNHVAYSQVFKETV
Source text: A stable HEK293-Blue-hTLR-7 cell line was purchased from InvivoGen (Cat.#: hkb-ht1r7, San Diego, Calif., USA). These cells were designed for studying the stimulation of human TLR7 by monitoring the activation of NF-κB. A SEAP (secreted embryonic alkaline phosphatase) reporter gene was placed under the control of the IFN-β minimal promoter fused to five NF-κB and AP-1-binding sites. The SEAP was induced by activating NF-κB and AP-1 via stimulating HEK-Blue hTLR7 cells with TLR7 ligands. Therefore the reporter expression was regulated by the NF-κB promoter upon stimulation of human TLR7 for 20 hours. The cell culture supernatant SEAP reporter activity was determined using QUANTI-Blue™ kit (Cat.#: rep-qb1, Invivogen, San Diego, Calif., USA) at a wavelength of 640 nm, a detection medium that turns purple/blue in the presence of alkaline phosphatase.
HEK293-Blue-hTLR7 cells were incubated at a density of 250,000˜450,000 cells/mL in a volume of 180 μL in a 96-well plate in Dulbecco's Modified Eagle's medium (DMEM) containing 4.5 g/L glucose, 50 U/mL penicillin, […] streptomycin, […] Normocin, 2 mM L-glutamine, 10% (v/v) heat-inactivated fetal bovine serum for 24 h. Then the HEK293-Blue-hTLR-7 cells were incubated with addition of 20 μL test compound in a serial dilution in the presence of final DMSO at 1% and perform incubation under 37° C. in a CO2 incubator for 20 hours. Then 20 μL of the supernatant from each well was incubated with 180 μL Quanti-blue substrate solution at 37° C. for 2 h and the absorbance was read at 620˜655 nm using a spectrophotometer. The signalling pathway that TLR7 activation leads to downstream NF-κB activation has been widely accepted, and therefore similar reporter assay was also widely used for evaluating TLR7 agonist (Tsuneyasu Kaisho and Takashi Tanaka, Trends in Immunology, Volume 29, Issue 7, July 2008, […]; Hiroaki Hemmi et al, Nature Immunology 3, 196-200 (2002).

AAV-HBV = experiment: In vivo antiviral efficacy in AAV-HBV mouse model; set-up: species or system C57BL/6 mice; conditions: mouse serum
Protocol: Example 6-A was evaluated for its in vivo antiviral efficacy using an AAV-HBV mouse model. This mouse model for HBV infection was generated by injecting C57BL/6 mice with a recombinant adeno-associated virus (AAV) carrying a replicable HBV (hepatitis B virus) genome (AAV-HBV). In 3 weeks post infection, high levels of HBV viral markers, such as HBV genomic DNA and HBsAg (HBV surface antigen), was detected in the sera of infected mice. With persistent HBV viremia and fully competent immune system, the AAV-HBV model is suitable for investigating the in vivo efficacy of Example 6-A.
To establish the AAV-HBV model, a total of fifteen 4-week old male C57BL/6 mice, specific pathogen free, were purchased from Shanghai Laboratory Animal Center of Chinese Academy of Sciences (SLAC) and housed in an animal care facility in individually ventilated cages under controlled temperature and light conditions following the Institutional Animal Care guidelines. AAV-HBV virus stock was available from Beijing FivePlus Molecular Medicine Institute (Beijing, China). C57BL/6 mice were injected with 200 μL of recombinant virus in saline buffer through tail vein injection. The mice were bled on day 14 post injection to monitor HBsAg, HBeAg, and HBV genomic DNA in serum. On day 29 post injection, the fifteen mice were randomly recruited into 3 groups based on their HBV biomarker levels, and started to receive treatments, as shown in Table 3.
Mice in group 1 were treated with vehicle placebo (2% Klucel LF, 0.1% Polysorbate 80, and 0.1% Parabens in water); mice in group 2 and 3 were treated with Example 6-A at 30 mg/kg and 100 mg/kg respectively, every other day (QOD). All the mice were orally dosed for a total of 6 weeks. Serum samples were collected twice a week to monitor HBV biomarkers. Serum HBsAg was measured using CLIA kits (Autobio Diagnostics Co., Ltd, Zhengzhou, China) according to the manufacturer's instructions. The lower limit of detection for HBsAg was 0.1 ng/mL. Serum dilution of 500-fold (for HBsAg) was used to obtain values within the linear range of the standard curve. Serum HBV DNA was extracted using a MagNA Pure 96 DNA and Viral NA Small Volume Kit (Roche) following the manufacturer's instructions. The DNA samples were analyzed by real-time quantitative PCR (qPCR) using a HBV-specific primer and probe set for specific amplification and detection of a 128 bp HBV genome region from the nucleotide 2969 to 3096.

[1] = 30 mg/kg PO QOD, after the 6-week treatment
[2] = 100 mg/kg PO QOD, at the end of the treatment (6 weeks)

| Compound | EC50 (human TLR7) | other results |
| --- | --- | --- |
| CC(=O)OC(C1CC1)[C@H]1O[C@@H](n2c(=O)sc3cnc(N)nc32)CS1 (single isomer, unassigned) [Example 6-A] | – | reduction in HBV DNA (AAV-HBV; [1]): more than 2 log; reduction in HBsAg (AAV-HBV; [1]): 0.8 log; reduction in HBV DNA (AAV-HBV; [2]): more than 3 log; reduction in HBsAg (AAV-HBV; [2]): 2.4 log |
| CC(=O)OC(C1CC1)[C@H]1O[C@@H](n2c(=O)sc3c(=O)[nH]c(N)nc32)CS1 (single isomer, unassigned) [Example 7-A] | 61.7 µM | – |
| CC#CC(OC(C)=O)[C@H]1O[C@@H](n2c(=O)sc3c(=O)[nH]c(N)nc32)CS1 (single isomer, unassigned) [Example 13-A] | 151 µM | – |
| Nc1nc2c(sc(=O)n2[C@H]2CS[C@@H](C(O)C#CC3CC3)O2)c(=O)[nH]1 (single isomer, unassigned) [Example 14-A] | 54.3 µM | – |
| Nc1nc2c(sc(=O)n2[C@H]2CS[C@@H](C(O)c3cccs3)O2)c(=O)[nH]1 (single isomer, unassigned) [Example 20-A] | 33.9 µM | – |
| C[C@@H]1S[C@@H](CO)OC1n1c(=O)sc2c(=O)[nH]c(N)nc21 (single isomer, unassigned) [Example 21-A] | 53.9 µM | – |
| CC[C@H](O)C1OC(n2c(=O)sc3c(=O)[nH]c(N)nc32)[C@H](C)S1 (single isomer, unassigned) [Example 22-A] | 4.7 µM | – |
| C[C@@H]1S[C@@H](C(O)C2CC2)OC1n1c(=O)sc2c(=O)[nH]c(N)nc21 (single isomer, unassigned) [Example 23-A] | 4.5 µM | – |
| C[C@@H]1S[C@@H](C(O)C2CC2)OC1n1c(=O)sc2c(=O)[nH]c(N)nc21 (single isomer, unassigned) [Example 23-B] | 31.5 µM | – |
| CC#CC(O)C1OC(n2c(=O)sc3c(=O)[nH]c(N)nc32)[C@H](C)S1 (single isomer, unassigned) [Example 24-A] | 10.1 µM | – |
| C=CCC1SC(CO)OC1n1c(=O)sc2c(=O)[nH]c(N)nc21 (single isomer, unassigned) [Example 25-A, 3-[4-Allyl-2-(hydroxymethyl)-1,3-oxathiolan-5-yl]-5-amino-6H-thiazolo[4,5-d]pyrimidine-2,7-dione] | 178 µM | – |

Continued, in another order:

| EC50 (human TLR7) | Compound | other results |
| --- | --- | --- |
| 306 µM | Nc1nc2c(sc(=O)n2[C@H]2CS[C@@H](C(O)C3CC3)O2)c(=O)[nH]1 (single isomer, unassigned) [Example 4-B] | – |
| 16.5 µM | CCC(O)[C@H]1O[C@@H](n2c(=O)sc3c(=O)[nH]c(N)nc32)CS1 (single isomer, unassigned) [Example 8-A] | – |
| 10 µM | CCCC(O)[C@H]1O[C@@H](n2c(=O)sc3c(=O)[nH]c(N)nc32)CS1 (single isomer, unassigned) [Example 9-A] | – |
| 160 µM | CCCC(O)[C@H]1O[C@@H](n2c(=O)sc3c(=O)[nH]c(N)nc32)CS1 (single isomer, unassigned) [Example 9-B] | – |
| 7.6 µM | CC#CC(O)[C@H]1O[C@@H](n2c(=O)sc3c(=O)[nH]c(N)nc32)CS1 (single isomer, unassigned) [Example 10-A] | – |
| 122 µM | CC#CC(O)[C@H]1O[C@@H](n2c(=O)sc3c(=O)[nH]c(N)nc32)CS1 (single isomer, unassigned) [Example 10-B] | – |
| 16.7 µM | C#CC(O)[C@H]1O[C@@H](n2c(=O)sc3c(=O)[nH]c(N)nc32)CS1 (single isomer, unassigned) [Example 15-A] | – |
| 46.5 µM | CC(O)[C@H]1O[C@@H](n2c(=O)sc3c(=O)[nH]c(N)nc32)CS1 (single isomer, unassigned) [Example 16-A] | – |
| 63.3 µM | CC(C)CC(O)[C@H]1O[C@@H](n2c(=O)sc3c(=O)[nH]c(N)nc32)CS1 (single isomer, unassigned) [Example 17-A] | – |
| 93.6 µM | CC(C)CC(O)[C@H]1O[C@@H](n2c(=O)sc3c(=O)[nH]c(N)nc32)CS1 (single isomer, unassigned) [Example 17-B] | – |
| 29 µM | C=CCC(O)[C@H]1O[C@@H](n2c(=O)sc3c(=O)[nH]c(N)nc32)CS1 (single isomer, unassigned) [Example 18-A] | – |
| 32.9 µM | CCCCC(O)[C@H]1O[C@@H](n2c(=O)sc3c(=O)[nH]c(N)nc32)CS1 (single isomer, unassigned) [Example 19-A] | – |
| 97 µM | Nc1nc2c(sc(=O)n2C2CSC(CO)O2)c(=O)[nH]1 (stereo not shown) [Example 1, 5-Amino-3-[2-(hydroxymethyl)-1,3-oxathiolan-5-yl]-6H-thiazolo[4,5-d] pyrimidine-2,7-dione] | – |
| 125 µM | Nc1nc2c(sc(=O)n2[C@H]2CS[C@@H](CO)O2)c(=O)[nH]1 [Example 2-A, 5-amino-3-[(2S,5R)-2-(hydroxymethyl)-1,3-oxathiolan-5-yl]-6H-thiazolo[4,5-d]pyrimidine-2,7-dione] | – |
